Results reported in ChEMBL document CHEMBL1240490, “Novel carbamates as orally active acetylcholinesterase inhibitors found to improve scopolamine-induced cognition impairment: pharmacophore-based virtual screening, synthesis, and pharmacology” (J Med Chem, 2010).
Activity calls are given as the source filed them. No cut-off for these calls is given here.

Tests used:
[1] = target: T1, Acetylcholinesterase (Homo sapiens, UniProt P22303)
Description: (§1) Inhibition of human AChE by Ellmans test

[2] = target: T1, Acetylcholinesterase; remark: listed apart in the source
Description: as §1

[3] = tested on: Caenorhabditis elegans; assay: Inhibition of ACh release in Caenorhabditis elegans N2 N2; type: functional, organism-based

T1 sequence (P22303 whole entry): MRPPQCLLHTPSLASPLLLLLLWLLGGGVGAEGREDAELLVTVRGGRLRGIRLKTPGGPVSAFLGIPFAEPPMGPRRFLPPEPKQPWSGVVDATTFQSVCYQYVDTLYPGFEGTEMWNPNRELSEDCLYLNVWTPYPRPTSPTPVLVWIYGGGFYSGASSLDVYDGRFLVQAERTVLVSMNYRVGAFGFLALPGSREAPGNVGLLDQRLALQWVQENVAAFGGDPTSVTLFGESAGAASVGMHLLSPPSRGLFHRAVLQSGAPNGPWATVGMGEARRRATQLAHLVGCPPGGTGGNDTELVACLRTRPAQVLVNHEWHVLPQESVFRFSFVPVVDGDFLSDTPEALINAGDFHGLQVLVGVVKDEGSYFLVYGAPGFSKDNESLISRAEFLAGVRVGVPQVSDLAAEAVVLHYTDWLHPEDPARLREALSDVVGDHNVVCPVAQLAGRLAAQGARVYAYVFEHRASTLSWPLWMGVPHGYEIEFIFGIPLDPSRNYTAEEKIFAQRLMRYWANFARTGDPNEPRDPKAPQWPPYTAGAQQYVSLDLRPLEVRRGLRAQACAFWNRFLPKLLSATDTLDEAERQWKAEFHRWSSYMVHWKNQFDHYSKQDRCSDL

Row | SMILES | logIC50 [1] | IC50 [2] | inhibition [3]
1 | Cc1cccc(NC(=O)Oc2ccc3c(c2)[C@]2(C)CCN(C)[C@@H]2N3C)c1C | 1.36 |  | 
2 | CCc1ccccc1NC(=O)Oc1ccc2c(c1)[C@]1(C)CCN(C)[C@@H]1N2C | 1 |  | 
3 | CNC(=O)Oc1ccc2c(c1)[C@]1(C)CCN(Cc3ccccc3)[C@@H]1N2Cc1ccccc1 | 3.55 | 3560 nM | 
4 | Cc1ccc(NC(=O)Oc2ccc3c(c2)[C@]2(C)CCN(C)[C@@H]2N3C)c(C)c1 | 1.15 |  | 
5 | CN1CC[C@@]2(C)c3cc(OC(=O)Nc4ccccc4)ccc3N(Cc3ccccc3)[C@@H]12 | 2.39 | 245 nM | 
6 | CC(C)c1ccc(NC(=O)Oc2ccc3c(c2)C2(C)COC(O3)O2)cc1 (stereo not drawn) | 3.63 | 4300 nM | 
7 | CC(C)c1ccc(NC(=O)Oc2ccc3c(c2)[C@]2(C)CCO[C@@H]2N3C)cc1 | 3.59 |  | 
8 | CCc1cccc(CC)c1NC(=O)Oc1ccc2c(c1)[C@]1(C)CCN(C)[C@@H]1N2C | 2.84 | 690 nM | 
9 | Cc1ccccc1NC(=O)Oc1ccc2c(c1)C1(C)COC(C1)O2 (stereo not drawn) | 1.75 |  | 
10 | O=C(Nc1ccccc1Cl)Oc1ccc2c(c1)CCCN2Cc1ccccc1 |  | 3310 nM | 
11 | CCNC(=O)Oc1ccc2c(c1)C1(C)COC(C1)O2 (stereo not drawn) | 2.56 |  | 
12 | CC(C)c1ccc(NC(=O)Oc2ccc3c(c2)[C@]2(C)CCN(C)C2N3)cc1 (stereo partly drawn) | 3.31 |  | 
13 | C[C@@]12CCN(Cc3ccccc3)[C@@H]1N(Cc1ccccc1)c1ccc(OC(=O)Nc3ccccc3)cc12 | 4.61 | 41100 nM | 
14 | CNC(=O)Oc1ccc2c(c1)[C@@]1(C)CCN(C)C1N2Cc1ccccc1 (stereo partly drawn) | 3.45 |  | 
15 | CNC(=O)Oc1ccc2c(c1)[C@]1(C)CCNC1N2 (stereo partly drawn) | 3.17 |  | 
16 | CC(C)c1ccc(NC(=O)Oc2ccc3c(c2)[C@]2(C)CCNC2N3C)cc1 (stereo partly drawn) | 2.51 |  | 
17 | Cc1ccccc1NC(=O)Oc1ccc2c(c1)[C@]1(C)CCO[C@@H]1N2C | 1.11 |  | 
18 | C[C@H](c1cccc(OC(=O)N(C)C)c1)N1CCCCC1 |  | 32 nM | 
19 | CN(C(=O)Oc1ccc2c(c1)[C@]1(C)CCN(C)[C@@H]1N2C)c1ccccc1 | 2.46 | 285 nM | 
20 | CCNC(=O)Oc1ccc2c(c1)[C@]1(C)CCN(C)[C@@H]1N2C | 1.97 |  | 

Row | SMILES | logIC50 [1] | IC50 [2] | inhibition [3]
21 | Cc1ccc(NC(=O)Oc2ccc3c(c2)[C@]2(C)CCN(C)[C@@H]2N3C)cc1C | 1.49 |  | 
22 | CNC(=O)Oc1ccc2c(c1)[C@]1(C)CCN(C)[C@@H]1N2 | 1.75 | 56.7 nM | 
23 | CNC(=O)Oc1ccc2c(c1)[C@@]1(C)CCN(C)C1N2 (stereo partly drawn) | 1.75 |  | 
24 | Cc1cc2c(cc1OC(=O)Nc1ccccc1)[C@]1(C)CCN(C)[C@@H]1N2C | 2.41 |  | 
25 | CC(C)c1ccc(NC(=O)Oc2ccc3c(c2)[C@]2(C)CCN(C)C2N3Cc2ccccc2)cc1 (stereo partly drawn) | 4.11 |  | 
26 | CCNC(=O)Oc1ccc2c(c1)[C@]1(C)CCO[C@@H]1N2C | 1.91 |  | 
27 | Cc1ccccc1NC(=O)Oc1ccc2c(c1)[C@]1(C)CCNC1N2C (stereo partly drawn) | 1.23 |  | 
28 | CNC(=O)Oc1ccc2c(c1)[C@]1(C)CCN(C)C1N2Cc1ccccc1 (stereo partly drawn) | 2.21 |  | 
29 | Cc1ccccc1NC(=O)Oc1ccc2c(c1)[C@]1(C)CCN(C)[C@@H]1N2 | 1.6 | 40 nM | 
30 | CCCCCCNC(=O)Oc1ccc2c(c1)CCCN2Cc1ccccc1 |  |  | Active
31 | CN1CC[C@]2(C)c3cc(OC(=O)Nc4ccccc4)ccc3NC12 (stereo partly drawn) | 3.75 |  | 
32 | CNC(=O)Oc1ccc2c(c1)OC[C@@H]1CCN(C)[C@H]21 |  | 30 nM | 
33 | CN1CC[C@]2(C)c3cc(OC(=O)Nc4ccccc4)ccc3N(C)C12 (stereo partly drawn) | 3.54 |  | 
34 | Cc1ccc(C)c(NC(=O)Oc2ccc3c(c2)[C@]2(C)CCN(C)[C@@H]2N3C)c1 | 1.42 |  | 
35 | CNC(=O)Oc1ccc2c(c1)[C@]1(C)CCO[C@@H]1N2C | 1.43 |  | 
36 | CNC(=O)Oc1ccc2c(c1)c(C)cn2Nc1ccncc1F |  | 100 nM | 
37 | CNC(=O)Oc1ccc2c(c1)[C@]1(C)CCN(C)[C@@H]1N2C=O | 3.4 | 2500 nM | 
38 | Cc1ccccc1NC(=O)Oc1ccc2c(c1)[C@]1(C)CCN(C)[C@@H]1N2C [TOLSERINE] | 1 | 40 nM | 
39 | Cc1ccccc1NC(=O)Oc1ccc2c(c1)[C@]1(C)CCN(CCc3ccccc3)C1N2C (stereo partly drawn) | 2.74 |  | 
40 | CCNC(=O)Oc1ccc2c(c1)C1(C)COC(O2)O1 (stereo not drawn) | 2.59 | 387 nM | 

Row | SMILES | logIC50 [1] | IC50 [2] | inhibition [3]
41 | Cc1ccccc1NC(=O)Oc1ccc2c(c1)[C@]1(C)CCN(Cc3ccccc3)C1N2Cc1ccccc1 (stereo partly drawn) | 3.25 |  | 
42 | CN(C)Cc1cc2c(cc1OC(=O)Nc1ccccc1)[C@]1(C)CCN(C)[C@@H]1N2C | 2.89 | 780 nM | 
43 | CCOC(=O)C1=CN(C)c2cccc(OC(=O)N(C)C)c2C1 |  | 7 nM | 
44 | CNC(=O)Oc1ccc2c(c1)[C@]1(C)CCN(Cc3ccccc3)C1N2Cc1ccccc1 (stereo partly drawn) | 3.04 |  | 
45 | Cc1cc(C)cc(NC(=O)Oc2ccc3c(c2)[C@]2(C)CCN(C)[C@@H]2N3C)c1 | 1.89 |  | 
46 | CNC(=O)Oc1ccc2c(c1)SC[C@@H]1CCN(C)[C@H]21 |  | 8.11 nM | 
47 | CNC(=O)Oc1ccc2c(c1)CC[C@@H]1CCN(C)[C@H]21 |  | 17.3 nM | 
48 | Cc1ccc(NC(=O)Oc2ccc3c(c2)[C@]2(C)CCN(C)[C@@H]2N3C)cc1 | 2.15 |  | 
49 | CN1CC[C@]2(C)c3cc(OC(=O)Nc4ccccc4)ccc3N(Cc3ccccc3)C12 (stereo partly drawn) | 4.05 |  | 
50 | CNC(=O)Oc1ccc2c(c1)[C@]1(C)CCN(C)[C@@H]1N2Cc1ccccc1 | 2.21 | 161 nM | 
51 | CC(C)c1ccccc1NC(=O)Oc1ccc2c(c1)[C@]1(C)CCN(C)[C@@H]1N2C | 1.18 |  | 
52 | Cc1ccccc1NC(=O)Oc1ccc2c(c1)[C@]1(C)CCN[C@@H]1N2 | 2.92 | 830 nM | 
53 | Cc1ccccc1NC(=O)Oc1ccc2c(c1)[C@]1(C)CCN(C)C1N2Cc1ccccc1 (stereo partly drawn) | 2 |  | 
54 | Cc1cc(C)c(NC(=O)Oc2ccc3c(c2)[C@]2(C)CCN(C)[C@@H]2N3C)c(C)c1 | 3.11 |  | 
55 | C[C@]12CCNC1Nc1ccc(OC(=O)Nc3ccccc3)cc12 (stereo partly drawn) | 2.36 |  | 
56 | CN1CC[C@@]2(C)c3cc(OC(=O)Nc4ccccc4)ccc3N(C=O)[C@@H]12 | 2.52 | 330 nM | 
57 | Cc1cccc(C)c1NC(=O)Oc1ccc2c(c1)[C@]1(C)CCN(C)[C@@H]1N2C | 2.89 |  | 
58 | CN1CC[C@@]2(C)c3cc(OC(=O)N4CCc5ccccc5C4)ccc3N(C)[C@@H]12 [QUILOSTIGMINE] |  | 148 nM | 
